Reference: patent publication US11446282B2, “Methods of treating mixed dyslipidemia and hypertriglycertdemia” (Kowa Company, Ltd., priority 2017, dated 2022)

How the values were obtained:
[1] = system: dyslipidemic patients with renal impairment; assay: Example 3 phase III 52-week trial: adverse events and adverse drug reactions; assay type: in vivo, human
Method: This was a multicenter, single-arm, open-label, phase III trial. The inclusion criteria were as follows: (1) patients with dyslipidemia aged >20 years at the time of informed consent; (2) men and postmenopausal women; (3) fasting serum TG≥1.70 mmol/L (150 mg/dL) at two consecutive measurements during screening; and (4) patients who followed dietary and physical exercise guidance for >12 weeks before enrollment.
During the screening period (8 weeks prior to treatment initiation), tests were performed twice to determine patient eligibility. Thereafter, eligible patients orally received pemafibrate 0.2 mg/day (twice daily) for 52 weeks. From week 12 of the treatment period onwards, the investigators were instructed that the dose could be increased from 0.2 mg/day to 0.4 mg/day (twice daily) if there was an inadequate response to the initial dose based on fasting serum TG levels ≥1.70 mmol/L (150 mg/dL). Fasting blood and urine samples were collected at each visit. Blood and urine sample in patients with hemodialysis were collected just before dialysis. LDL-C levels were measured using the direct method. Lipoprotein fractions were measured by HPLC at baseline and weeks 12 and 40.
The primary efficacy endpoint was the percent change in fasting serum TG from baseline to the last evaluation point. The primary safety endpoints were the incidence of an AE or ADR occurring after drug administration during the study. Secondary efficacy endpoints included percent changes in lipid variables and changes in inflammation variables at week 52 [using the last-observation-carried-forward (LOCF)]. Secondary safety endpoints included changes in the levels of aspartate aminotransferase (AST), ALT, -GT, ALP, serum creatinine, eGFR, and CK at week 52. […]
The numbers of patients with AEs and ADRs and the incidences of AEs and ADRs were calculated in the analysis of primary safety endpoints. […] The secondary safety endpoints were analyzed with Wilcoxon signed-rank tests. […] Where indicated, the data are expressed as means±standard deviation (SD).

PPARα = biological target: T1, PPARα (Homo sapiens, UniProt Q07869); assay: PPARα-activating effect (EC50); assay type: biochemical
T1 sequence (Q07869 1-468): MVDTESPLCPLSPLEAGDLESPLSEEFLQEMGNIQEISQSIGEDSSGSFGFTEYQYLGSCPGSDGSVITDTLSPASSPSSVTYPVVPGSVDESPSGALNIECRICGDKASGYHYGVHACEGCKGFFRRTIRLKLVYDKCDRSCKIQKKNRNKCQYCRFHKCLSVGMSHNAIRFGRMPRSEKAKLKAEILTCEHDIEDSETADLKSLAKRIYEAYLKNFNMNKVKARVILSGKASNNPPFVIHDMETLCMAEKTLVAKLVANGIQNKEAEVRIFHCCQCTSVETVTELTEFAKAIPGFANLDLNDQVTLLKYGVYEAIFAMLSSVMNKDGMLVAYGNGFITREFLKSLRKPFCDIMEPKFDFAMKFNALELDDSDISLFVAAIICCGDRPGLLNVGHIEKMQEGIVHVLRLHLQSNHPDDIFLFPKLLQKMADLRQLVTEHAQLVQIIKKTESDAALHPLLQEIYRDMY

specificity for the PPARα receptor (PPARα; versus fenofibrate): more specific | times more active than fenofibric acid in terms of the EC50 of the PPARα-activating effect (PPARα; versus fenofibric acid): approximately 2500 times
SMILES: CC[C@@H](Oc1cccc(CN(CCCOc2ccc(OC)cc2)c2nc3ccccc3o2)c1)C(=O)O [Pemafibrate, (2R)-2-[3-({1,3-benzoxazol-2-yl[3-(4-methoxyphenoxy)propyl]amino}methyl)phenoxy]butanoic acid]
incidence of adverse drug reactions ([1]; 0.2 (0.4) mg/day, 52 weeks): 31.7% | incidence of adverse events ([1]; 0.2 (0.4) mg/day, 52 weeks): 82.0% | association of adverse event and adverse drug reaction incidences with baseline eGFR ([1]; in vivo): not associated
